Measurements taken from article PMC6442119, “The antitumor activity of CYB-L10, a human topoisomerase IB catalytic inhibitor” (Journal of Enzyme Inhibition and Medicinal Chemistry, 2019).
“Also recorded” adds a separate entry of the source.

Columns and labels:
RC0.1 = test: MTT assay
TOP1 = test system: TOP1; design: method as in PMID 26188908; conditions: compared with CPT; cited from earlier work
HCT116 = test: MTT assay; type: cell-based; conditions: Homo sapiens, HCT-116; Parental cell line HCT116, MTT, 72 h
MCF-7/ADR = test: MTT assay; type: cell-based, human
HepG2/ADR = test: MTT assay; type: cell-based, human
HL-60 (TB) = test: NCI60 assay; type: cell-based; conditions: Homo sapiens, Leukemia, 48 h
Procedure: The NCI60 (National Cancer Institute 60) tumor cell drug discovery panel was developed as a tool to assess the anticancer activity of compounds against a range of cell lines derived from nine cancer cell types, including hematological malignancies, lung, central nervous system, melanoma, colorectal, renal, breast, ovarian, and prostate[18]^,[23]^,[24]. CYB-L10 was tested using the protocols by the NCI, which has been described previously. […] The overall antiproliferative potential is quantified as a mean-graph midpoint (MGM).
(§1) It was selected and submitted to National Cancer Institute (NCI, USA) for a developmental therapeutics assay against the 60 clinical tumor cell lines representing nine tissue types (NCI60)[23–25]. The tumor cells were incubated with CYB-L10 for 48 h and stained with sulphorhodamine B dye. Cell growth inhibition (GI50) was calculated relative to the control without compound.

MCF-7 = test: MTT assay; type: cell-based; conditions: Homo sapiens, MCF7; Parental cell line MCF-7, MTT, 72 h
HCT116 cells = test: Apoptosis analysis, flow cytometry annexin V-FITC/PI; type: cell-based, human; conditions: 9 μM, 24 h
Procedure: HCT116 cells (3.0 × 10^5 cells/mL) were grown in culture medium on 6-well plates and incubated in the presence or absence of CYB-L10 (1, 3, and 9 µM) for 24 h. And then, the cells were harvested and washed with cold PBS buffer, resuspended in 1 × binding buffer, and then stained with 5 µL Annexin V-FITC and 5 µL propidium iodide (KeyGEN BioTECH, Nanjing, China) for 15 min in dark. The stained cells were analyzed by using flow cytometry (BD, FACSCalibur, Franklin Lakes, NJ, USA) within 1 h. The experiments were repeated independently for three times.
To estimate the effect of CYB-L10 on apoptosis, flow cytometry analysis using double staining with annexin V-FITC/PI was carried out for HCT116 cells. […] CYB-L10 induced the major population of HCT116 cells into the late apoptotic stage 47.39% at 9 μM concentration.

TOP2 = test: TOP2-mediated relaxation assay; type: biochemical; conditions: 25 μM, relaxation of supercoiled pBR322 DNA
Procedure: Figure S1. TOP2-mediated relaxation assay. Lane 1, supercoiled pBR322 DNA alone; Lane 2, DNA
and enzyme; Lanes 3, DNA, enzyme and the positive control etoposide (VP16) at 25 μM; Lanes 4,
DNA, enzyme and CYB-L10 at 25 μM. R: relaxed DNA. Sc: supercoiled DNA.
(1 picture or pasted object on this page, not shown here)

MOLT-4 = test: NCI60 assay; type: cell-based; conditions: Homo sapiens; Leukemia, MOLT-4, 48 h
Procedure: as §1, with “CYB-L10 was tested using the protocols by the NCI, which has been described previously. […] The overall antiproliferative potential is quantified as a mean-graph midpoint (MGM). […] It” for “It”

P-glycoprotein (Pgp) = P-glycoprotein (Pgp) (Homo sapiens, UniProt P08183); test: Pgp substrate assessment in Pgp-overexpressing resistant sublines; conditions: from MCF-7/ADR and HepG2/ADR sublines with overexpressed Pgp
Sequence of P-glycoprotein (Pgp) (P08183 whole entry): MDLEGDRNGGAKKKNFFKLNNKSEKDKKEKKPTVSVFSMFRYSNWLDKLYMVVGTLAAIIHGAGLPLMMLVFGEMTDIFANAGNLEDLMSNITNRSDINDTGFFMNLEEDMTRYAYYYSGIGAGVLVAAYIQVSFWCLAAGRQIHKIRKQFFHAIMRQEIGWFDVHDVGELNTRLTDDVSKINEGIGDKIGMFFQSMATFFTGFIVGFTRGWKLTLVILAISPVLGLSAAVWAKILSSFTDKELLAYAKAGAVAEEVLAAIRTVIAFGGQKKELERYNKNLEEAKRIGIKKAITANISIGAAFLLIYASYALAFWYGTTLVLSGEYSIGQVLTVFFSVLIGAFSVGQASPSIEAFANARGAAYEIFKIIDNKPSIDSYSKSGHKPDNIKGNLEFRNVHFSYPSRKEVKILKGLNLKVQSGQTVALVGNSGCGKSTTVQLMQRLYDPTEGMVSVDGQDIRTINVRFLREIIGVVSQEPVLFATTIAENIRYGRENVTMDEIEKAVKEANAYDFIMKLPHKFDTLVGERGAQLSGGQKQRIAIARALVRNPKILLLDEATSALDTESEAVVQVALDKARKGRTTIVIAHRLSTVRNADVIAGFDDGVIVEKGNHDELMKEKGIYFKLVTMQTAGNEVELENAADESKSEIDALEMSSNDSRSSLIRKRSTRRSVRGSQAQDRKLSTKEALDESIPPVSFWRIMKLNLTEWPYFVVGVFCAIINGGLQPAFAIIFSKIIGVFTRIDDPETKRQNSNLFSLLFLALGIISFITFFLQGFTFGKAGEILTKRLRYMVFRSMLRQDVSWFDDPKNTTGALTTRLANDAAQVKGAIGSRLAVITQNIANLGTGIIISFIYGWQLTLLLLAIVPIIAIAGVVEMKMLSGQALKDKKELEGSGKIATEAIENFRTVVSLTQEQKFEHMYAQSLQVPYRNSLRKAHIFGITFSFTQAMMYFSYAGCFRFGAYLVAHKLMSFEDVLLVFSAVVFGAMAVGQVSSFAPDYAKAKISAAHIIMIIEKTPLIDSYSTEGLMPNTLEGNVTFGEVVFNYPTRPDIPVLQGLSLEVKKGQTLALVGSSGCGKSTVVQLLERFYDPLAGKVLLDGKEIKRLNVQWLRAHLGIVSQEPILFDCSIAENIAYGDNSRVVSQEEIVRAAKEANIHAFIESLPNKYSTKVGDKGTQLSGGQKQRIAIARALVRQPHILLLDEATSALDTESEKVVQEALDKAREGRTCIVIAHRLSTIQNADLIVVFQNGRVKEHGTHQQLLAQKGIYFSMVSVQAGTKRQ

In the case of `O=C1c2cccnc2C(=O)c2c1c(C(=O)OCCN1CCOCC1)c1ccccn21` [CYB-L10], the Resistance ratio (RC0.1; GI50 RC0.1 / GI50 DU-145) is given as 40.6, the GI50 (RC0.1; Homo sapiens, 72 h, read-out: GI50 ± SD) is given as 0.65 ± 0.01 µM and the TOP1 inhibition (TOP1) is given as “higher TOP1 inhibition than CPT”. The GI50 (HCT116) was 0.027 ± 0.024 µM, the Resistance ratio (MCF-7/ADR; GI50 MCF-7/ADR / GI50 MCF-7) was 6.6 and the GI50 (MCF-7/ADR; Homo sapiens, NCI/ADR-RES, Resistant subline MCF-7/ADR, MTT, 72 h) was 0.6 ± 0.21 µM. It also gave a Resistance ratio (HepG2/ADR; GI50 HepG2/ADR / GI50 HepG2) of 11.4, a GI50 (HepG2/ADR; Homo sapiens, Resistant subline HepG2/ADR, MTT, 72 h) of 0.74 ± 0.24 µM and a GI50 (HL-60 (TB)) of 0.24 µM. The GI50 (MCF-7) was 0.091 µM, the “A2 quadrant cells (late apoptotic stage)” value (HCT116 cells) was 47.39% and the “inhibition against TOP2” value (TOP2) was “very weak inhibition”. The GI50 (MOLT-4) was 0.217 µM and the “substrate of the Pgp” value (P-glycoprotein (Pgp)) was “not a substrate of the P-glycoprotein; also recorded: not to be a substrate of the Pgp”.
